Experimental data reported in patent US20260363245A1, “HETEROCYCLIC COMPOUND AND HARMFUL ARTHROPOD CONTROL COMPOSITION CONTAINING SAME” (SUMITOMO CHEMICAL COMPANY, LIMITED, priority 2022, published 2026).

Columns and labels:
Assay type in all cases: in vivo
[1] = tested on: cotton aphids (Aphis gossypii); assay: Test Method 11: cotton aphid, foliar spray on cucumber seedling (Formulation Example 5); conditions: 200 ppm; foliar spray 10 mL/seedling; 5 days after spraying
Description: Each test compound is made to a formulation according to a similar method to that described in the Formulation Example 5, and thereto is added water containing 0.03 v/v % of Shindain (registered trademark) to prepare a diluted solution containing a prescribed concentration of the test compound.
(§1) Cucumber (Cucumis sativus) seedling (on the developmental stage of the second true leaf) is planted in a container and approximately 30 cotton aphids (Aphis gossypii) (all developmental stages of life) are released onto the leaves of the cucumber. After 1 day, the diluted solutions are sprayed to the seedling at a ratio of 10 mL/seedling. Further, after 5 days, the number of the surviving insects is examined and the controlling value is calculated by the following equation.
Controlling value (%)={1−(Cb×Tai)/(Cai×)}×100
wherein the symbols in the formula represent the following descriptions. • Cb: Number of the test insects in untreated group; • Cai: Number of the surviving insects at the time of the investigation in untreated group; • Tb: Number of the test insects in treated group; • Tai: Number of the surviving insects at the time of the investigation in treated group; • Here the “untreated group” represents a group where the similar treatment procedure to that of the treated group except not using the test compound is done.

[2] = tested on: common house mosquito (Culex pipiens pallens); assay: Test Method 12: common house mosquito larvae in diluted solution; conditions: 3.5 ppm; last instar larvae; 1 day
Description: Each test compound is formulated to a test formulation according to a similar method to that described in the Formulation Example 1, and water is added in preparing for a diluted solution containing a prescribed concentration of the test compound.
Into the diluted solution, 30 last instar larvae of common house mosquito (Culex pipiens pallens) are released, and after 1 day, the state of the house mosquito larvae is examined, and the mortality is calculated by the following equation.
(§2) Mortality(%)=(Number of dead insects/Number of tested insects)×100

[3] = tested on: cotton aphids (Aphis gossypii); assay: Test Method 1: cotton aphid, foliar spray on cucumber seedling (Formulation Example 1); conditions: 500 ppm; foliar spray 10 mL/seedling; 5 days after spraying
Description: (§3) Each test compound is made to a formulation according to a similar method to that described in the Formulation Example 1, and thereto is added water containing 0.03 v/v % of Shindain (registered trademark) to prepare a diluted solution containing a prescribed concentration of the test compound.
as §1
Controlling value(%)={1−(Cb×Tai)/(Cai×Tb)}×100
wherein the symbols in the formula represent the following descriptions. • Cb: Number of the test insects in untreated group; • Cai: Number of the surviving insects at the time of the investigation in untreated group; • Tb: Number of the test insects in treated group; • Tai: Number of the surviving insects at the time of the investigation in treated group;
Here the “untreated group” represents a group where the similar treatment procedure to that of the treated group except not using the test compound is done.

[4] = tested on: diamondback moth (Plutella xylostella); assay: Test Method 4: diamondback moth, sprayed cabbage seedling, second-instar larvae; conditions: 500 ppm, spray 20 mL/seedling, 5 days
Description: as §3
(§4) Cabbage (Brassicae oleracea) seedling (on the developmental stage of the second to third true leaf) is planted in a container, and the diluted solutions are sprayed to the seedling at a ratio of 20 mL/seedling. Thereafter, the aerial part of the seedling is cut out and then is installed into a container in which a filter paper is placed at the bottom of the container. Five of second-instar larvae of diamondback moth (Plutella xylostella) are released into the container. After 5 days, the number of the surviving insects is counted, and the mortality of insects is calculated by the following equation.
(§5) Mortality(%)=(1−Number of surviving insects/5)×100

[5] = tested on: cotton worm (Spodoptera litura); assay: Test Method 3: cotton worm, sprayed cabbage seedling, second-instar larvae; conditions: 500 ppm, spray 20 mL/seedling, 5 days
Description: as §3
as §4, with “cotton worm (Spodoptera litura)” for “diamondback moth (Plutella xylostella)”
as §5

[6] = tested on: housefly (Musca domestica); assay: Test Method 8: housefly female adults, coated glass vial; conditions: 40 mg/m^2 coated vial, 1 day
Description: An acetone solution which is adjusted to 800 ppm of each test compound is poured into a 20 mL glass vial, and the test compound is coated uniformly on inner face of the vial so as to 40 mg/m^2 of the test compound treated, and the vial is then dried.
5 housefly (Musca domestica) female adults are released into the treated vial, and the vial is then covered with lid. After the prescribed time, the state of the housefly is examined, and the mortality is calculated by the following equation.
as §2

[7] = tested on: Western corn rootworm (Diabrotica virgifera virgifera); assay: Test Method 5: Western corn rootworm, immersed corn seedling; conditions: 200 ppm; corn seedling immersed 30 seconds; second-instar larvae; 5 days
Description: Each 1 mg of the test compounds is dissolved in 50 μL of a mixed solution consisting of 5% of polyoxyethylene sorbitan mono-cocoate and 95% of acetone by volume ratio. Thereto is added water containing 0.03% by volume of Shindain (registered trademark) to prepare a diluted solution containing a prescribed concentration of the test compound.
A young seedling of corn (Zea mays) is immersed into the diluted solution for 30 seconds. Thereafter, two seedlings are installed in a plastic petri dish ([…]), and 10 of second-instar larvae of Western corn rootworm (Diabrotica virgifera virgifera) are released into the dish. After 5 days, the number of the dead insects is counted, and the mortality of insects is calculated by the following equation.
Mortality(%)=(Number of dead insects/10)×100

Row | Structure (SMILES) | controlling value [1] | mortality [2] | controlling value [3] | mortality [4] | mortality [5] | mortality [6] | mortality [7]
1 | CCS(=O)(=O)c1c(N2CCn3nc(Br)cc3C2=O)nc2ccc(I)cn12 [compound 46] | ≥ 90% | – | – | – | – | – | –
2 | CCS(=O)(=O)c1cc(-c2cccc(C#N)n2)cnc1N1CCn2nc(C(F)(F)F)cc2C1=O [compound 23] | – | greater than 90% | ≥ 90% | – | – | – | –
3 | CCS(=O)(=O)c1cc(-c2cc(Cl)cc(Cl)c2)cnc1N1CCn2nc(C(F)(F)F)cc2C1=O [compound 13] | – | greater than 90% | ≥ 90% | ≥ 80% | ≥ 80% | – | –
4 | CCS(=O)(=O)c1cc(-c2ccc(Cl)cc2)cnc1N1CCn2nc(C(F)(F)F)cc2C1=O [compound 11] | ≥ 90% | – | ≥ 90% | ≥ 80% | ≥ 80% | ≥ 80% | ≥ 80%
5 | CCS(=O)(=O)c1cc(-c2ccc(F)cc2)cnc1N1CCn2nc(C(F)(F)F)cc2C1=O [compound 9] | ≥ 90% | – | ≥ 90% | ≥ 80% | ≥ 80% | – | ≥ 80%
6 | CCS(=O)(=O)c1cc(-c2ccc(Cl)cc2)cnc1N1CCn2nc(OC(F)F)cc2C1=O [compound 16] | ≥ 90% | – | – | – | – | – | –
7 | CCS(=O)(=O)c1cc(C2CC2)cnc1N1CCn2nc(OC(F)F)cc2C1=O [compound 6] | ≥ 90% | greater than 90% | ≥ 90% | ≥ 80% | ≥ 80% | – | ≥ 80%
8 | CCS(=O)(=O)c1cc(Br)cnc1N1CCn2nc(C(F)(F)F)cc2C1=O [compound 7] | ≥ 90% | greater than 90% | ≥ 90% | – | – | – | ≥ 80%
9 | CCS(=O)(=O)c1c(N2CCn3nc(OC(F)F)cc3C2=O)nc2ccc(I)cn12 [compound 3] | ≥ 90% | greater than 90% | – | ≥ 80% | ≥ 80% | ≥ 80% | ≥ 80%
10 | CCS(=O)(=O)c1cc(-c2ccc(F)cc2)cnc1N1CCn2nc(OC(F)F)cc2C1=O [compound 19] | ≥ 90% | greater than 90% | ≥ 90% | – | ≥ 80% | – | –
11 | CCS(=O)(=O)c1cc(-c2cc(Cl)ccn2)cnc1N1CCn2nc(C(F)(F)F)cc2C1=O [compound 27] | – | greater than 90% | – | ≥ 80% | – | – | –
12 | CCS(=O)(=O)c1cc(Br)cnc1N1CCn2nc(OC(F)F)cc2C1=O [compound 8] | ≥ 90% | – | ≥ 90% | ≥ 80% | – | – | –
